Measured values: patent US9339503B2, “Tetrahydro-quinazolinone derivatives as TANK and PARP inhibitors” (MERCK PATENT GMBH, priority 2012, dated 2016)

Experiments:
tankyrase 1/2 = experiment: Measurement of cellular inhibition of tankyrase (Axin2 level, Luminex based assay, DLD1 cells); settings: 24 hours, increase of Axin2 level, read-out: EC50 tankyrase 1/2 (cell assay)
Description: Measurement of Cellular Inhibition of Tankyrase
Since Tankyrases have been described to modulate cellular level of Axin2 (Huang et al., 2009; Nature) the increase of Axin2 level is used as read-out for determination of cellular inhibition of Tankyrases in a Luminex based assay.
Cells of the colon carcinoma cell line DLD1 are plated in 96 well plates with 1.5×10^4 cells per well. Next day, cells are treated with a serial-dilution of test compound in seven steps as triplicates with a final DMSO concentration of 0.3%. After 24 hours, cells are lysed in lysis buffer (20 mM Tris/HCl pH 8.0, 150 mM NaCl, 1% NP40, 10% Glycerol) and lysates are cleared by centrifugation through a 96 well filter plate (0.65 μm). Axin2 protein is isolated from cell lysates by incubation with a monoclonal anti-Axin2 antibody (R&D Systems #MAB6078) that is bound to fluorescent carboxybeads. Then, bound Axin2 is specifically detected with a polyclonal anti-Axin2 antibody (Cell Signaling #2151) and an appropriate PE-fluorescent secondary antibody. The amount of isolated Axin2 protein is determined in a Luminex^200 machine (Luminex Corporation) according to the manufacturer's instruction by counting 100 events per well. […] For analysis, the obtained data were normalized against the untreated solvent control and fitted for determination of the EC50 values using the Assay Explorer software (Accelrys).

[1] = target: T1, GST-tagged Tnks-1 (1023-1327 aa) (Homo sapiens, UniProt O95271); experiment: TNKS 1 activity ELISA (autoparsylation assay); format: biochemical; settings: read-out: IC50 tankyrase 1 (ELISA assay)
T1 construct: GST-tagged Tnks-1 (1023-1327 aa, prepared in-house); made in house
T1 sequence (O95271 1023-1327): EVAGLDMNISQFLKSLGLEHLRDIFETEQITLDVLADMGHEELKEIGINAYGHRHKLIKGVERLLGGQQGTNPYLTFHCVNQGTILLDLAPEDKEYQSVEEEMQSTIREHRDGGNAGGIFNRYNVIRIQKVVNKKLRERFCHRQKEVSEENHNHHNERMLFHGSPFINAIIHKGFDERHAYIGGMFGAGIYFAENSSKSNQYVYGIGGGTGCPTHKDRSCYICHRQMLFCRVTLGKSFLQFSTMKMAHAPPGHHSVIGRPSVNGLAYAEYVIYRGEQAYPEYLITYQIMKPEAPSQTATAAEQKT
Description: (§1) Biochemical Activity Testing of TNKS 1 and 2: Activity ELISA (Autoparsylation Assay)
(§2) For analysis of autoparsylation activity of TNKS 1 and 2 an activity ELISA was performed: In the first step GST tagged TNKS was captured on a Glutathione coated plate. Then the activity assay with biotinylated NAD was performed in the absence/presence of the compounds. During the enzymatic reaction GST tagged TNKS transferred biotinylated ADP-ribose to itself from biotinylated NAD as co-substrate. For the detection streptavidin-HRP conjugate was added that bound to the biotinylated TNKS and was thereby captured to the plates. The amount of biotinylated resp autoparsylated TNKS was detected with a luminescence substrate for HRP. The level of the luminescence signal correlated directly with the amount of autoparsylated TNKS and therefore with activity of TNKS.
(§3) The activity ELISA was performed in 384 well Glutathione coated microtiter plates (Express capture Glutathione coated plate, Biocat, Heidelberg, Germany). The plates were pre-equilibrated with PBS. Then the plates were incubated with 50 μl 20 ng/well GST-tagged Tnks-1 (1023-1327 aa, prepared in-house), respectively GST-tagged Tnks-2 (873-1166 aa, prepared in-house) in assay buffer (50 mM HEPES, 4 mM Mg-chloride, 0.05% Pluronic F-68, 2 mM DTT, pH 7.7) overnight at 4° C. The plates were washed 3 times with PBS-Tween-20. The wells were blocked by incubation at room temperature for 20 minutes with 50 μl blocking buffer (PBS, 0.05% Tween-20, 0.5% BSA). Afterwards the plates were washed 3 times with PBS-Tween-20. The enzymatic reaction was performed in 50 μl reaction solution (50 mM HEPES, 4 mM Mg-chloride, 0.05% Pluronic F-68, 1.4 mM DTT, 0.5% DMSO, pH 7.7) with 10 μM bio-NAD (Biolog, Life science Inst., Bremen, Germany) as co-substrate in the absence or presence of the test compound (10 dilution concentrations) for 1 hour at 30° C. The reaction was stopped by 3 times washing with PBS-Tween-20. For the detection 50 μl of 20 ng/μl Streptavidin, HRP conjugate (MoBiTec, Göttingen, Germany) in PBS/0.05% Tween-20/0.01% BSA were added and the plates were incubated for 30 minutes at room temperature. After three times washing with PBS-Tween-20 50 μl of SuperSignal ELISA Femto Maximum sensitivity substrate solution (ThermoFisherScientific (Pierce), Bonn, Germany) were added. Following a 1 minute incubation at room temperature luminescence signals were measured with an Envision multimode reader (Perkin Elmer LAS Germany GmbH) at 700 nm. The full value used was the inhibitor-free reaction. The pharmacological zero value used was XAV-939 (Tocris) in a final concentration of 5 μM. The inhibitory values (IC50) were determined using either the program Symyx Assay Explorer® or Condosseo® from GeneData.

[2] = target: T2, GST-tagged Tnks-2 (873-1166 aa) (Homo sapiens, UniProt Q9H2K2); experiment: TNKS 2 activity ELISA (autoparsylation assay); format: biochemical; settings: read-out: IC50 tankyrase 2 (ELISA assay)
T2 construct: GST-tagged Tnks-2 (873-1166 aa, prepared in-house); made in house
T2 sequence (Q9H2K2 873-1166): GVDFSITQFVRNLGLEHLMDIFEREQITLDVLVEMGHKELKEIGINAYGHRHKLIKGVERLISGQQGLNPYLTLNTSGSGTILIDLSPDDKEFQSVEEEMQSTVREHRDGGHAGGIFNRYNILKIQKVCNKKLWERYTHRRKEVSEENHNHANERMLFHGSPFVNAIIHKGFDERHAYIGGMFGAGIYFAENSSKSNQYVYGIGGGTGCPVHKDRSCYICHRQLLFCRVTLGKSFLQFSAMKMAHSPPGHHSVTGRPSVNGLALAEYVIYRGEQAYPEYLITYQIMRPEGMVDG
Description: as §1, §2, §3

[3] = target: T3, GST-tagged Tankyrase-2 (873-1166 aa) (Homo sapiens, UniProt Q9H2K2); experiment: Tankyrase 2 autoparsylation assay (HTRF enzyme assay); format: biochemical
T3 construct: GST-tagged Tankyrase-2 (873-1166 aa)
T3 sequence (Q9H2K2 873-1166): as above
Description: (§4) The autoparsylation assay was run in two steps: the enzymatic reaction in which GST-tagged Tankyrase-1, resp Tankyrase-2 transferred biotinylated ADP-ribose to itself from biotinylated NAD as co-substrate and the detection reaction where a time resolved FRET between cryptate labelled anti-GST bound to the GST tag of the enzyme and Xlent® labelled-streptavidin bound the biotin-parsylation residue was analysed. The autoparsylation activity was detectable directly via the increase in HTRF signal.
(§5) The autoparsylation assay was performed as 384-well HTRF® (Cisbio, Codolet, France) assay format in Greiner low volume nb 384-well microtiter plates and was used for high throughput screen. 250 nM GST-tagged Tankyrase-1 (1023-1327 aa), respectively about 250 nM GST-tagged Tankyrase-2 (873-1166 aa) and 5 μM bio-NAD (Biolog, Life science Inst., Bremen, Germany) as co-substrate were incubated in a total volume of 5 μl (50 mM HEPES, 4 mM Mg-chloride, 0.05% Pluronic F-68, 1.4 mM DTT, 0.5% DMSO, pH 7.7) in the absence or presence of the test compound (10 dilution concentrations) for 90 min at 30° C. The reaction was stopped by the addition of 1 μl 50 mM EDTA solution. 2 μl of the detection solution (1.6 μM SA-Xlent® (Cisbio, Codolet, France), 7.4 nM Anti-GST-K® (Eu-labelled anti-GST, Cisbio, Codolet, France) in 50 mM HEPES, 800 mM KF, 0.1% BSA, 20 mM EDTA, 0.1% CHAPS, pH 7.0) were added. After 1 h incubation at room temperature the HTRF was measured with an Envision multimode reader (Perkin Elmer LAS Germany GmbH) at excitation wavelength 340 nm (laser mode) and emission wavelengths 615 nm and 665 nm. The ratio of the emission signals was determined. The full value used was the inhibitor-free reaction. The pharmacological zero value used was XAV-939 (Tocris) in a final concentration of 5 μM. The inhibitory values (IC50) were determined using either the program Symyx Assay Explorer® or Condosseo® from GeneData.

[4] = target: T4, GST-tagged Tankyrase-1 (1023-1327 aa) (Homo sapiens, UniProt O95271); experiment: Tankyrase 1 autoparsylation assay (HTRF enzyme assay); format: biochemical
T4 construct: GST-tagged Tankyrase-1 (1023-1327 aa)
T4 sequence (O95271 1023-1327): as the sequence (O95271 1023-1327) above
Description: as §4, §5

## O=c1[nH]c(N2CCN(c3ccc(F)cc3Cl)CC2)nc2c1CCCC2 [Compound A39, 2-[4-(2-chloro-4-fluoro-phenyl)piperazin-1-yl]-5,6,7,8-tetrahydro-3H-quinazolin-4-one]
Tankyrase 1/2
  EC50: 0.3 to 3 µM
[1]
  IC50: < 0.3 µM
[2]
  IC50: < 0.3 µM
[3]
  IC50: 0.3 to 3 µM
[4]
  IC50: 0.3 to 3 µM

## COc1ccc(C2(O)CCN(c3nc4c(c(=O)[nH]3)CCCC4)CC2)cc1 [Compound A53, 2-[4-hydroxy-4-(4-methoxy-phenyl)-piperidin-1-yl]-5,6,7,8-tetrahydro-3H-quinazolin-4-one]
Tankyrase 1/2
  EC50: 0.3 to 3 µM
[3]
  IC50: 0.3 to 3 µM
[4]
  IC50: 0.3 to 3 µM

## N#CCc1ccc(N2CCN(c3nc4c(c(=O)[nH]3)CCCC4)CC2)cc1 [Compound A46, 2-[4-[4-(4-oxo-5,6,7,8-tetrahydro-3H-quinazolin-2-yl)piperazin-1-yl]phenyl] acetonitrile]
[3]
  IC50: 0.3 to 3 µM
[4]
  IC50: 0.3 to 3 µM

## CC(C)Oc1ccccc1N1CCN(c2nc3c(c(=O)[nH]2)CCCC3)CC1 [Compound A42, 2-[4-(2-isopropoxyphenyl)piperazin-1-yl]-5,6,7,8-tetrahydro-3H-quinazolin-4-one]
[3]
  IC50: 0.3 to 3 µM
[4]
  IC50: 0.3 to 3 µM

## CCOc1ccc(N2CCN(c3nc4c(c(=O)[nH]3)CCCC4)CC2)cc1 [Compound A48, 2-[4-(4-ethoxyphenyl)piperazin-1-yl]-5,6,7,8-tetrahydro-3H-quinazolin-4-one]
[1]
  IC50: < 0.3 µM
[2]
  IC50: < 0.3 µM
[3]
  IC50: 0.3 to 3 µM
[4]
  IC50: 0.3 to 3 µM

## COc1ccc(N2CCN(c3nc4c(c(=O)[nH]3)CCCC4)CC2=O)cc1 [Compound A14, 2-[4-(4-Methoxyphenyl)-3-oxopiperazin-1-yl]-5,6,7,8-tetrahydro-3H-quinazolin-4-one]
Tankyrase 1/2
  EC50: 3 to 50 µM
[3]
  IC50: 3 to 50 µM
[4]
  IC50: 3 to 50 µM

## O=c1[nH]c(N2CCN(CCO)CC2)nc2c1CCCC2 [Compound A25, 2-[4-(2-hydroxyethyl)piperazin-1-yl]-5,6,7,8-tetrahydro-3H-quinazolin-4-one]
[3]
  IC50: 3 to 50 µM
[4]
  IC50: 3 to 50 µM

## O=c1[nH]c(N2CCN(c3cccc(O)n3)CC2)nc2c1CCCC2 [Compound A16, 2-[4-(6-Hydroxypyridin-2-yl)piperazin-1-yl]-5,6,7,8-tetrahydro-3H-quinazolin-4-one]
Tankyrase 1/2
  EC50: 3 to 50 µM
[3]
  IC50: 3 to 50 µM
[4]
  IC50: 3 to 50 µM

## O=C(N1CCCCC1)N1CCN(c2nc3c(c(=O)[nH]2)CCCC3)CC1 [Compound A15, 2-[4-(Piperidine-1-carbonyl)piperazin-1-yl]-5,6,7,8-tetrahydro-3H-quinazolin-4-one]
Tankyrase 1/2
  EC50: 3 to 50 µM
[3]
  IC50: 3 to 50 µM
[4]
  IC50: 3 to 50 µM

## O=c1[nH]c(N2CCN(c3ccc(C(F)(F)F)cc3)CC2)nc2c1CCCC2 [Compound A50, 2-[4-(4-trifluoromethylphenyl)piperazin-1-yl]-5,6,7,8-tetrahydro-3H-quinazolin-4-one]
[3]
  IC50: 0.3 to 3 µM
[4]
  IC50: 0.3 to 3 µM

## O=C(c1ccccc1)N1CCN(c2nc3c(c(=O)[nH]2)CCCC3)CC1 [Compound A17, 2-(4-Benzoylpiperazin-1-yl)-5,6,7,8-tetrahydro-3H-quinazolin-4-one]
[3]
  IC50: 3 to 50 µM
[4]
  IC50: 3 to 50 µM

## O=c1[nH]c(N2CCC(O)(c3ccccc3)CC2)nc2c1CCCC2 [Compound A35, 2-(4-hydroxy-4-phenyl-1-piperidyl)-5,6,7,8-tetrahydro-3H-quinazolin-4-one]
Tankyrase 1/2
  EC50: 0.3 to 3 µM
[3]
  IC50: 0.3 to 3 µM
[4]
  IC50: 0.3 to 3 µM

## O=C(N1CCOCC1)N1CCN(c2nc3c(c(=O)[nH]2)CCCC3)CC1 [Compound A20, 2-[4-(Morpholine-4-carbonyl)piperazin-1-yl]-5,6,7,8-tetrahydro-3H-quinazolin-4-one]
Tankyrase 1/2
  EC50: 3 to 50 µM
[3]
  IC50: 3 to 50 µM
[4]
  IC50: 3 to 50 µM

## CC(C)(C)N1CCN(c2nc3c(c(=O)[nH]2)CCCC3)CC1 [Compound A13, 2-(4-tert-Butylpiperazin-1-yl)-5,6,7,8-tetrahydro-3H-quinazolin-4-one]
Tankyrase 1/2
  EC50: 3 to 50 µM
[3]
  IC50: 0.3 to 3 µM
[4]
  IC50: 0.3 to 3 µM

## O=c1[nH]c(N2CCN(c3cccnc3)CC2)nc2c1CCCC2 [Compound A32, 2-[4-(3-pyridyl)piperazin-1-yl]-5,6,7,8-tetrahydro-3H-quinazolin-4-one]
[3]
  IC50: 0.3 to 3 µM
[4]
  IC50: 0.3 to 3 µM

## O=c1[nH]c(N2CCN(CCc3ccccn3)CC2)nc2c1CCCC2 [Compound A26, 2-[4-[2-(2-pyridyl)ethyl]piperazin-1-yl]-5,6,7,8-tetrahydro-3H-quinazolin-4-one]
[3]
  IC50: 0.3 to 3 µM
[4]
  IC50: 0.3 to 3 µM

## O=c1[nH]c(N2CCN(c3ccccc3OC(F)(F)F)CC2)nc2c1CCCC2 [Compound A43, 2-[4-[2-(trifluoromethoxy)phenyl]piperazin-1-yl]-5,6,7,8-tetrahydro-3H-quinazolin-4-one]
[3]
  IC50: 3 to 50 µM
[4]
  IC50: 0.3 to 3 µM

## O=C(CN1CCN(c2nc3c(c(=O)[nH]2)CCCC3)CC1)Nc1ccccn1 [Compound A18, N-pyridin-2-yl-2-[4-(4-oxo-3,4,5,6,7,8-hexahydroquinazolin-2-yl)piperazin-1-yl]-acetamide]
Tankyrase 1/2
  EC50: 3 to 50 µM
[3]
  IC50: 0.3 to 3 µM
[4]
  IC50: 0.3 to 3 µM
